Patent publication US20030157162A1, “Liposome-encapsulated opioid analgesics” (priority 2002, published 2003)
Structures can show the parent of a compound that is named as a salt.

Experiments:
[1] = In vivo pharmacokinetics in dogs (ELISA, NONMEM model, trapezoidal AUC); parameters: species or system dog
Text: Twenty-five adult beagles (n=14; 12 female, 2 male) and hounds (n=11; 9 female, 2 male) that were 1 to 5 years old (median age 1.5 years) and weighed between 6.9 kg and 35.7 kg (median weight=9.46 kg) were used. Normal health status and organ function were confirmed by physical exam and a complete blood count and serum chemistry profile prior to inclusion in the study. None of the animals received any medications in the 2 weeks prior to study. Animals were housed individually (hounds) or in groups of 2 to 4 (beagles), and were fed a commercial diet and water ad libitum throughout the study.
(§1) Two doses of liposome-encapsulated oxymorphone and two equipotent doses of standard pharmaceutical oxymorphone were investigated. One dose of the liposomal vehicle was also investigated to confirm the absence of pharmacodynamic properties of the vehicle. Each dog received only 1 treatment and was then removed from further study. Treatment groups were as follows: Group 1 (n=6) liposome-encapsulated oxymorphone (1.0 mg/kg); Group 2 (n=5) liposome-encapsulated oxymorphone (0.5 mg/kg); Group 3 (n=6) standard pharmaceutical oxymorphone (NUMORPHAN®, Endo Pharmaceuticals Inc., Chadds Ford, Pa.) (0.1 mg/kg); Group 4 (n=6) standard pharmaceutical oxymorphone (0.05 mg/kg); Group 5 (n=2) liposomal vehicle (0.7 ml). Liposome-encapsulated oxymorphone or vehicle were drawn from a stock solution on ice via an 18 gauge needle attached to a 1- or 3-ml syringe and administered subcutaneously slowly via a 23 gauge needle. All injections were made in a shaved area of the thigh such that potential skin reactions to the liposomal preparations could be assessed.
A 1 ml blood sample was collected percutaneously from the left and right cephalic or saphenous veins, in rotating order. In groups 1 and 2 (liposome-encapsulated oxymorphone groups), blood was collected before and 0.5, 1, 2, 4, 8, 12, 16, and 24 hours after drug administration, and daily for 5 days at the same time of day as treatment administration had occurred. In groups 3, 4, and 5 (standard oxymorphone and liposomal vehicle groups), blood was collected before and 0.5, 1, 2, 4, 8, 12, and 24 hours after drug administration. Blood samples were transferred to centrifuge tubes and held on ice for a maximum of 4 hours, then centrifuged at 5° C. for 10 minutes at 5000×g. Serum was stored at −70° C. until analysis.
Oxymorphone concentrations in serum were quantitated using a commercial ELISA (Neogen Inc, Lexington, Ky.).
Plasma oxymorphone concentrations were used in pharmacokinetic model building using a non-linear, mixed effect computer program (NONMEM User's Guides, (1989-98) Beal and Sheiner (Eds.) GloboMax, LLC, Hanover, Md.). The data from all animals were evaluated concurrently. The assumption was made that the subcutaneous injection of the standard and liposomal oxymorphone delivered drug to an extravascular compartment from which unidirectional absorption into the blood occurred. In the case of the liposomal preparation, an additional, unidirectional rate constant of flux from the liposome to the surrounding subcutaneous compartment was assumed.
This was tested in the pharmacokinetic model construction with allowance for a variable (fitted) fraction of the liposomal dose administered directly to the subcutaneous space in the aqueous carrier.
The NONMEM model included an intersubject variability for the parameters of distribution volume, fraction of drug delivered to of the liposome, and drug flux into and out of the plasma. The first-order rate of drug loss from the liposome was assumed to be a physiochemical constant, and was not allowed to vary between animals. Animal weight and sex were tested as continuous and categorical covariates affecting volume and clearance. Pharmacokinetic models that included a tissue distribution compartment were over-parameterized and were discarded. […]

dogs = assay: Sedation score, heart rate, respiratory rate, temperature and skin reaction in dogs; type: in vivo, dog
Experimental: as §1
A sedation score was recorded on each dog prior to drug administration and at the same times as venous blood collection. The sedation score included recording of heart rate by auscultation, respiratory rate by observation of movement of the thoracic wall, and rectal temperature via a digital rectal thermometer. The same person assessed sedation scores throughout the study. Changes in sedation score, heart rate, respiratory rate, and temperature were analyzed using repeated measures ANOVA, with p<0.05 considered significant.

CN1CC[C@]23c4c5ccc(O)c4O[C@H]2C(=O)CC[C@@]3(O)[C@H]1C5 [standard oxymorphone, oxymorphone hydrochloride]
AUC (dose-normalised, median) ([1]; 0.05 mg/kg): 128.0 (ng-hr/L)/mg/kg) | K23 (from subcutaneous tissue to systemic tissue) ([1]; 0.05 mg/kg): 0.400 h⁻¹ | K30 (from systemic tissue to excretion from body) ([1]; 0.05 mg/kg): 5.40 h⁻¹ | V ([1]; 0.05 mg/kg): 2.03 L | AUC (dose-normalised, median) ([1]; 0.1 mg/kg): 135.9 (ng-hr/L)/mg/kg) | K23 (from subcutaneous tissue to systemic tissue) ([1]; 0.1 mg/kg): 0.348 h⁻¹ | K30 (from systemic tissue to excretion from body) ([1]; 0.1 mg/kg): 7.19 h⁻¹ | V ([1]; 0.1 mg/kg): 1.50 L | time of peak sedation score (dogs; 0.05 and 0.1 mg/kg): 30 min | respiratory rate and rectal temperature compared to baseline (dogs; either dose): moderate and statistically insignificant decrease | local skin reactions at the site of injection (dogs; s.c.): no local skin reactions | heart rate from baseline to 2 hours after drug administration (dogs; within clinically normal range): significant decrease
